Measurements as given in paper PMC7845594, “Novel Immune Modulators Enhance Caenorhabditis elegans Resistance to Multiple Pathogens” (mSphere, 2021).

Tested on: C. elegans transcriptome
Assay: Transcriptome profiling (Affymetrix microarrays), differentially expressed genes
Assay type: in vivo, Caenorhabditis elegans
Procedure: To gain additional insight into the effect of LK molecules on C. elegans, young-adult, wild-type worms were treated with each drug at 100 µM for 8 h in the absence of pathogen. RNA was collected, and transcriptome profiling was performed.
Data were determined using Affymetrix microarrays, as described in Materials and Methods. Download Table S3, XLSX file, 0.07 MB.
Transcriptome profiling was performed on ∼6,000 wild-type, young adult worms incubated with either LK molecules or DMSO for 8 h. RNA isolation was performed using TRIzol extraction, followed by cleanup using RNeasy columns according to the manufacturer’s protocol. Each condition was analyzed in triplicate. Microarray data have been deposited in the GEO database, accession number GSE137516. […] Clustering and generation of the heat map was performed using Cluster 3.0 ([98]) and Treeview ([99]), respectively. Fold change of genes were normalized to average fold change of that gene over all clustered conditions. Genes and conditions were clustered using Euclidean distance and average linkages. […] Microarray data for non-LK molecules were collected from GEO omnibus. WormEXP was used as a secondary method for confirming statistical significance of potential pathways stimulated by each of the LK molecules ([100]). Gene ontologies were generated using DAVID ([101], [102]).

[1] = Downregulated genes, Affy_ID 171867_x_at

CN(C)/N=N/c1ccc(-c2cn(Cc3ccccc3)cn2)cc1 [LK38]
Fold Change (Affy_ID 171867_x_at, listed under genes C09B9.6, F36H12.7, K07F5.1, R05F9.13, R13H9.2, R13H9.4, T13F2.10, T13F2.11, Y59E9AR.1, Y59E9AR.7, ZK354.1, downregulated genes): 0.2521
Fold Change (Affy_ID 176276_s_at, listed under gene Y69A2AR.25 (LK34) or Y69A2AR.12 (LK38), downregulated genes): 0.3902
Fold Change, gene ZK525.1 (Downregulated genes, Affy_ID 171849_x_at): 0.4368
Fold Change, gene ZK354.10 [1]: 0.2521
Fold Change, gene ZK354.11 [1]: 0.2521
Fold Change, gene ZK354.4 [1]: 0.2521
Fold Change, gene ZK354.5 [1]: 0.2521
Fold Change, gene ZK525.1 (Downregulated genes, Affy_ID 172214_x_at): 0.3013
Fold Change, gene ZK484.8 (Downregulated genes, Affy_ID 172381_x_at): 0.4248
Fold Change, gene ZK546.3 (Downregulated genes, Affy_ID 172798_x_at): 0.1961
Fold Change, gene ZK546.6 (Downregulated genes, Affy_ID 172900_x_at): 0.1945
Fold Change, gene ZK354.4 (Downregulated genes, Affy_ID 172922_x_at): 0.2136
Fold Change, gene ZK354.11 (Downregulated genes, Affy_ID 172925_x_at): 0.2447
Fold Change, gene ZK354.5 (Downregulated genes, Affy_ID 172928_x_at): 0.2421
Fold Change, gene ZK550.2 (Downregulated genes, Affy_ID 179513_at): 0.2459
Fold Change, gene ZK484.5 (Downregulated genes, Affy_ID 182193_at): 0.3776
Fold Change, gene ZK666.7 (Downregulated genes, Affy_ID 194066_s_at): 0.2101
Fold Change (Gene C05C12.3, Affy_ID 183355_s_at, downregulated genes): 0.3153
Fold Change (Gene C08E3.1, Affy_ID 172309_x_at, downregulated genes): 0.1357
Fold Change (Gene C08E3.13, Affy_ID 172565_x_at, downregulated genes): 0.1172
Fold Change (Gene C08F11.13, Affy_ID 175229_at, downregulated genes): 0.2733
Fold Change (Gene C08F11.13, Affy_ID 185001_at, downregulated genes): 0.09464
Fold Change (Gene C09B9.6, Affy_ID 172903_x_at, downregulated genes): 0.2435
Fold Change (Gene C14C6.2, Affy_ID 183566_at, downregulated genes): 0.3131
Fold Change (Gene R01E6.3, Affy_ID 189628_at, downregulated genes): 0.3184
Fold Change (Gene R03E9.1, Affy_ID 193723_s_at, downregulated genes): 0.2835
Fold Change (Gene R04B5.9, Affy_ID 191440_at, downregulated genes): 0.3161
Fold Change (Gene R05F9.13, Affy_ID 172714_x_at, downregulated genes): 0.2707
Fold Change (Gene R05F9.3, Affy_ID 172725_x_at, downregulated genes): 0.4569
Fold Change (Gene R05F9.8, Affy_ID 172724_x_at, downregulated genes): 0.2625
Fold Change (Gene R12C12.1, Affy_ID 190616_at, downregulated genes): 0.3782
Fold Change (Gene R13H9.2, Affy_ID 172771_x_at, downregulated genes): 0.2091
Fold Change (Gene R13H9.4, Affy_ID 172770_x_at, downregulated genes): 0.2077
Fold Change (Gene T01C3.4, Affy_ID 188106_at, downregulated genes): 0.02377
Fold Change (Gene T02B11.3, Affy_ID 174051_s_at, downregulated genes): 0.3852
Fold Change (Gene T07C4.4, Affy_ID 178149_s_at, downregulated genes): 0.3385
Fold Change (Gene T07G12.5, Affy_ID 188496_s_at, downregulated genes): 0.1128
Fold Change (Gene T08B1.6, Affy_ID 192296_at, downregulated genes): 0.264
Fold Change (Gene T08B2.12, Affy_ID 184685_s_at, downregulated genes): 0.1122
Fold Change (Gene T09F5.9, Affy_ID 188947_at, downregulated genes): 0.335
Fold Change (Gene T13F2.10, Affy_ID 172906_x_at, downregulated genes): 0.282
Fold Change (Gene T13F2.11, Affy_ID 172905_x_at, downregulated genes): 0.2555
Fold Change (Gene T14B4.4, Affy_ID 190598_at, downregulated genes): 0.3119
Fold Change (Gene T15B7.9, Affy_ID 182858_at, downregulated genes): 0.3485
Fold Change (Gene T20D4.11, Affy_ID 184438_at, downregulated genes): 0.08285
Fold Change (Gene T22H2.6, Affy_ID 180962_s_at, downregulated genes): 0.4528
Fold Change (Gene T23B7.1, Affy_ID 172486_x_at, downregulated genes): 0.4388
Fold Change (Gene T23B12.8, Affy_ID 184855_at, downregulated genes): 0.1808
Fold Change (Gene T23F4.1, Affy_ID 180223_s_at, downregulated genes): 0.03953
Fold Change (Gene T23F4.3, Affy_ID 179815_at, downregulated genes): 0.03894
Fold Change (Gene T27A10.7, Affy_ID 186153_s_at, downregulated genes): 0.1891
Fold Change (Gene T27E4.7, Affy_ID 173756_at, downregulated genes): 0.3486
Fold Change (Gene T27E4.7, Affy_ID 173757_s_at, downregulated genes): 0.3375
Fold Change (Gene T28H11.6, Affy_ID 172704_x_at, downregulated genes): 0.3336
Fold Change (Gene W04B5.2, Affy_ID 180561_at, downregulated genes): 0.445
Fold Change (Gene W07B8.5, Affy_ID 191887_s_at, downregulated genes): 0.336
Fold Change (Gene Y40D12A.2, Affy_ID 191017_at, downregulated genes): 0.3923
Fold Change (Gene Y43F8B.2, Affy_ID 172568_x_at, downregulated genes): 0.4361
Fold Change (Gene Y44A6C.1, Affy_ID 182843_at, downregulated genes): 0.4118
Fold Change (Gene Y45F10A.5, Affy_ID 184558_at, downregulated genes): 0.1874
Fold Change (Gene Y46G5A.11, Affy_ID 184716_at, downregulated genes): 0.4392
Fold Change (Gene Y48A6B.7, Affy_ID 193926_at, downregulated genes): 0.1656
Fold Change (Gene Y48A6B.7, Affy_ID 193927_s_at, downregulated genes): 0.1715
Fold Change (Gene Y51A2D.13, Affy_ID 192992_at, downregulated genes): 0.2626
Fold Change (Gene Y51H4A.7, Affy_ID 180145_s_at, downregulated genes): 0.364
Fold Change (Gene Y59E9AR.7, Affy_ID 172629_x_at, downregulated genes): 0.2101
Fold Change (Gene Y59H11AM.1, Affy_ID 172113_x_at, downregulated genes): 0.292
Fold Change (Gene Y71H2AL.1, Affy_ID 177190_at, downregulated genes): 0.3481
Fold Change (Gene Y105C5A.13, Affy_ID 172627_x_at, downregulated genes): 0.08697
Fold Change (Gene Y105C5A.24, Affy_ID 187121_at, downregulated genes): 0.3583
Fold Change (Gene Y119D3B.13, Affy_ID 175112_s_at, downregulated genes): 0.1938
Fold Change (Gene Y119D3B.13, Affy_ID 176131_at, downregulated genes): 0.2809
Fold Change (Gene ZC416.6, Affy_ID 188470_s_at, downregulated genes): 0.4112
Fold Change (Gene ZK112.1, Affy_ID 175995_at, downregulated genes): 0.3894
Fold Change (Gene ZK131.4, Affy_ID 190307_s_at, downregulated genes): 0.355
Fold Change (Gene ZK131.7, Affy_ID 172871_x_at, downregulated genes): 0.3915
Fold Change (Gene ZK354.1, Affy_ID 172927_x_at, downregulated genes): 0.2349
Fold Change (Gene ZK1248.4, Affy_ID 172734_x_at, downregulated genes): 0.2783
Fold Change (Gene ZK1248.6, Affy_ID 172887_x_at, downregulated genes): 0.1775
Fold Change (Gene ZK1251.6, Affy_ID 172938_x_at, downregulated genes): 0.2909
Fold Change (upregulated gene Y19D10A.9, Affy_ID 180592_s_at): 3.58
Fold Change (upregulated gene Y22F5A.4, Affy_ID 182989_at): 2.438
Fold Change (upregulated gene Y22F5A.5, Affy_ID 183028_s_at): 6.765
Fold Change (upregulated gene Y37D8A.6, Affy_ID 181665_at): 2.8924
Fold Change (upregulated gene Y37E3.16, Affy_ID 173045_at): 4.522
Fold Change (upregulated gene Y38E10A.14, Affy_ID 175449_s_at): 26.3223
Fold Change (upregulated gene Y39G10AR.10, Affy_ID 176486_at): 4.567
Fold Change (upregulated gene Y40B10A.6, Affy_ID 176851_at): 66.4819
Fold Change (upregulated gene Y41C4A.16, Affy_ID 194230_x_at): 2.891
Fold Change (upregulated gene Y41D4B.10, Affy_ID 176055_at): 10.2277
Fold Change (upregulated gene Y41D4B.16, Affy_ID 176044_at): 4.224
Fold Change (upregulated gene Y45F10C.4, Affy_ID 186062_at): 3.88
Fold Change (upregulated gene Y45G12C.2, Affy_ID 187084_at): 31.3356
Fold Change (upregulated gene Y46C8AL.2, Affy_ID 172184_x_at): 22.6612
Fold Change (upregulated gene Y46G5A.4, Affy_ID 187467_s_at): 2.088
Fold Change (upregulated gene Y47D3B.10, Affy_ID 175803_at): 15.9397
Fold Change (upregulated gene Y47D7A.1, Affy_ID 176618_at): 2.89
Fold Change (upregulated gene Y47H9C.5, Affy_ID 191065_s_at): 3.429
Fold Change (upregulated gene Y51H7C.1, Affy_ID 186349_at): 10.9287
Fold Change (upregulated gene Y53G8B.2, Affy_ID 184714_s_at): 6.111
Fold Change (upregulated gene Y54G2A.6, Affy_ID 173144_at): 2.211
Fold Change (upregulated gene Y55B1AR.1, Affy_ID 187047_at): 6.195
Fold Change (upregulated gene Y57A10A.23, Affy_ID 187073_at): 4.734
Fold Change (upregulated gene Y66D12A.24, Affy_ID 175124_at): 2.206
Fold Change (upregulated gene Y77E11A.2, Affy_ID 187013_at): 2.874
Fold Change (upregulated gene Y105C5B.15, Affy_ID 186799_at): 3.08
Fold Change (upregulated gene Y105C5B.9, Affy_ID 185162_at): 4.4277
Fold Change (upregulated gene Y106G6D.6, Affy_ID 185498_at): 6.567
Fold Change (upregulated gene ZC155.1, Affy_ID 173222_s_at): 2.443
Fold Change (upregulated gene ZK455.1, Affy_ID 193891_at): 2.648
Fold Change (upregulated gene ZK455.7, Affy_ID 193924_at): 3.307
Fold Change (upregulated gene ZK512.7, Affy_ID 186714_s_at): 3.427
Fold Change (upregulated gene ZK637.13, Affy_ID 173475_s_at): 2.9018
Fold Change (upregulated gene ZK770.3, Affy_ID 180366_s_at): 3.303
Fold Change (upregulated gene ZK899.2, Affy_ID 178376_s_at): 3.754
